Measurements: the supplement of paper PMC11061612

Key:
Palbociclib = compound: CC(=O)c1c(C)c2cnc(Nc3ccc(N4CCNCC4)cn3)nc2n(C2CCCC2)c1=O [Palbociclib]; conditions: max 10 µM
How it was run: (§1)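 Cancer cell lines in 1536-well plates (7.5 μl DMEM/F12 or RPMI, 10% FBS) were held 24 hours at 37°C and 5% CO2 and then dosed for 72 hours at a final DMSO of typically 0.2%. Viability was taken from CellTiter-Glo 2.0 luminescence, scaled between blank-well and DMSO-well means. Curves were fitted as two-parameter logistic models with a non-linear mixed effects model, from which the single-agent IC50 was taken.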

Capivasertib = compound: C1CN(CCC1(C(=O)N[C@@H](CCO)C2=CC=C(C=C2)Cl)N)C3=NC=NC4=C3C=CN4 [Capivasertib]; conditions: max 10 µM
How it was run: as §1

AZD5153 = compound: COc1nnc2ccc(N3CCC(c4ccc(OCCN5CCN(C)C(=O)[C@H]5C)cc4)CC3)nn12 [AZD5153]; conditions: max 1 µM
How it was run: as §1

Doxorubicin = compound: COc1cccc2c1C(=O)c1c(O)c3c(c(O)c1C2=O)C[C@@](O)(C(=O)CO)C[C@@H]3O[C@H]1C[C@H](N)[C@H](O)[C@H](C)O1 [Doxorubicin]; conditions: max 1 µM
How it was run: as §1

Olaparib = compound: O=C(c1cc(Cc2n[nH]c(=O)c3ccccc23)ccc1F)N1CCN(C(=O)C2CC2)CC1 [Olaparib]; conditions: max 10 µM
How it was run: as §1

MK-2206 = compound: NC1(c2ccc(-c3nc4ccn5c(=O)[nH]nc5c4cc3-c3ccccc3)cc2)CCC1 [MK-2206]; conditions: max 10 µM
How it was run: as §1

Venetoclax = compound: CC1(C)CCC(CN2CCN(c3ccc(C(=O)NS(=O)(=O)c4ccc(NCC5CCOCC5)c([N+](=O)[O-])c4)c(Oc4cnc5[nH]ccc5c4)c3)CC2)=C(c2ccc(Cl)cc2)C1 [Venetoclax]; conditions: max 1 µM
How it was run: as §1

Dasatinib = compound: CC1=C(C(=CC=C1)Cl)NC(=O)C2=CN=C(S2)NC3=CC(=NC(=N3)C)N4CCN(CC4)CCO [Dasatinib]; conditions: max 2 µM
How it was run: as §1

Taselisib = compound: Cc1nc(-c2cn3c(n2)-c2ccc(-c4cnn(C(C)(C)C(N)=O)c4)cc2OCC3)n(C(C)C)n1 [Taselisib]; conditions: max 10 µM
How it was run: as §1

Crizotinib = compound: C[C@@H](Oc1cc(-c2cnn(C3CCNCC3)c2)cnc1N)c1c(Cl)ccc(F)c1Cl [Crizotinib]; conditions: max 10 µM
How it was run: as §1

AZD7648 = compound: Cc1cc2ncnn2cc1Nc1ncc2c(n1)n(C1CCOCC1)c(=O)n2C [AZD7648]; conditions: max 10 µM
How it was run: as §1

Prexasertib = compound: COc1cccc(OCCCN)c1-c1cc(Nc2cnc(C#N)cn2)n[nH]1 [Prexasertib]; conditions: max 1 µM
How it was run: as §1

AZD1390 = compound: CC(C)n1c(=O)n(C)c2cnc3cc(F)c(-c4ccc(OCCCN5CCCCC5)nc4)cc3c21 [AZD1390]; conditions: max 0.3 µM
How it was run: as §1

AZD1775 = compound: C=CCn1c(=O)c2cnc(Nc3ccc(N4CCN(C)CC4)cc3)nc2n1-c1cccc(C(C)(C)O)n1 [AZD1775]; conditions: max 3 µM
How it was run: as §1

AZD6738 = compound: C[C@@H]1COCCN1C2=NC(=NC(=C2)C3(CC3)[S@](=N)(=O)C)C4=C5C=CNC5=NC=C4 [AZD6738]; conditions: max 10 µM
How it was run: as §1

Savolitinib = compound: C[C@@H](c1ccc2nccn2c1)n1nnc2ncc(-c3cnn(C)c3)nc21 [Savolitinib]; conditions: max 1 µM
How it was run: as §1

Gefitinib = compound: COc1cc2ncnc(Nc3ccc(F)c(Cl)c3)c2cc1OCCCN1CCOCC1 [Gefitinib]; conditions: max 10 µM
How it was run: as §1

Lapatinib = compound: CS(=O)(=O)CCNCc1ccc(-c2ccc3ncnc(Nc4ccc(OCc5cccc(F)c5)c(Cl)c4)c3c2)o1 [Lapatinib]; conditions: max 10 µM
How it was run: as §1

Selumetinib = compound: Cn1cnc2c(F)c(Nc3ccc(Br)cc3Cl)c(C(=O)NOCCO)cc21 [Selumetinib]; conditions: max 10 µM
How it was run: as §1

AZD0156 = compound: CN(C)CCCOc1ccc(-c2ccc3ncc4c(c3c2)n(C2CCOCC2)c(=O)n4C)cn1 [AZD0156]; conditions: max 3 µM
How it was run: as §1

AZD4320 = compound: CN(CC[C@H](CSC1=CC=CC=C1)NC2=C(C=C(C=C2)S(=O)(=O)NC(=O)C3=CC=C(C=C3)N4CCC(CC4)[C@H](C5=CC=CC=C5C6=CC=C(C=C6)Cl)O)S(=O)(=O)C(F)(F)F)CCO [AZD4320]; conditions: max 1 µM
How it was run: as §1

AZD2811 = compound: CCN(CCO)CCCOc1ccc2c(Nc3cc(CC(=O)Nc4cccc(F)c4)[nH]n3)ncnc2c1 [AZD2811]; conditions: max 1 µM
How it was run: as §1

AZD5991 = compound: Cc1c2c(nn1C)CSCc1cc(n(C)n1)CSc1cc(c3ccccc3c1)OCCCc1c(C(=O)O)n(C)c3c-2c(Cl)ccc13 [AZD5991]; conditions: max 1 µM
How it was run: as §1

AZD8186 = compound: C[C@@H](Nc1cc(F)cc(F)c1)c1cc(C(=O)N(C)C)cc2c(=O)cc(N3CCOCC3)oc12 [AZD8186]; conditions: max 3 µM
How it was run: as §1

SG3199 = compound: CC1=CN2[C@@H](C1)C=NC3=CC(=C(C=C3C2=O)OC)OCCCCCOC4=C(C=C5C(=C4)N=C[C@@H]6CC(=CN6C5=O)C)OC [SG3199]; conditions: max 0.001 µM
How it was run: as §1

Alisertib = compound: COc1cc(Nc2ncc3c(n2)-c2ccc(Cl)cc2C(c2c(F)cccc2OC)=NC3)ccc1C(=O)O [Alisertib]; conditions: max 10 µM
How it was run: as §1

SN-38 = compound: CCc1c2c(nc3ccc(O)cc13)-c1cc3c(c(=O)n1C2)COC(=O)[C@]3(O)CC [SN-38]; conditions: max 0.3 µM
How it was run: as §1

Trametinib = compound: CC(=O)Nc1cccc(-n2c(=O)n(C3CC3)c(=O)c3c(Nc4ccc(I)cc4F)n(C)c(=O)c(C)c32)c1 [Trametinib]; conditions: max 1 µM
How it was run: as §1

Cell Line | IC50, cell viability 72 h (Palbociclib) [nM] | IC50, cell viability 72 h (Capivasertib) [nM] | IC50, cell viability 72 h (AZD5153) [nM] | IC50, cell viability 72 h (Doxorubicin) [nM] | IC50, cell viability 72 h (Olaparib) [nM] | IC50, cell viability 72 h (MK-2206) [nM] | IC50, cell viability 72 h (Venetoclax) [nM] | IC50, cell viability 72 h (Dasatinib) [nM] | IC50, cell viability 72 h (Taselisib) [nM] | IC50, cell viability 72 h (Crizotinib) [nM] | IC50, cell viability 72 h (AZD7648) [nM] | IC50, cell viability 72 h (Prexasertib) [nM] | IC50, cell viability 72 h (AZD1390) [nM] | IC50, cell viability 72 h (AZD1775) [nM] | IC50, cell viability 72 h (AZD6738) [nM] | IC50, cell viability 72 h (Savolitinib) [nM] | IC50, cell viability 72 h (Gefitinib) [nM] | IC50, cell viability 72 h (Lapatinib) [nM] | IC50, cell viability 72 h (Selumetinib) [nM] | IC50, cell viability 72 h (AZD0156) [nM] | IC50, cell viability 72 h (AZD4320) [nM] | IC50, cell viability 72 h (AZD2811) [nM] | IC50, cell viability 72 h (AZD5991) [nM] | IC50, cell viability 72 h (AZD8186) [nM] | IC50, cell viability 72 h (SG3199) [nM] | IC50, cell viability 72 h (Alisertib) [nM] | IC50, cell viability 72 h (SN-38) [nM] | IC50, cell viability 72 h (Trametinib) [nM]
SNU-5 (Gastric Carcinoma) | > 10000 | > 10000 | > 1000 | > 1000 | > 10000 | > 10000 | > 1000 | > 2000 | > 10000 | 86.9 | > 10000 | 18.1 | > 300 | 1850 | 1310 | 7.44 | > 10000 | > 10000 | 2570 | > 3000 | > 1000 | > 1000 | > 1000 | > 3000 | > 1 | > 10000 | 6.92 | 81.1
OVCA420 (Ovarian Carcinoma) | > 10000 | > 10000 | 126 | > 1000 | > 10000 | > 10000 | > 1000 | 265 | 989 | > 10000 | > 10000 | 178 | > 300 | > 3000 | > 10000 | > 1000 | 4450 | 1330 | 7910 | > 3000 | > 1000 | > 1000 | > 1000 | > 3000 | > 1 | > 10000 | > 300 | 156
